The target of the test is T1, Nav 1.7 (Homo sapiens, UniProt Q15858).
T1 construct: expressed in transfected cells
The experiment in a line: Whole-cell voltage clamp electrophysiology, automated patch clamp (marker c in Table of Examples). The settings on record: read-out: Nav 1.7 activity. It is filed as cell-based. An outline of the steps:
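A voltage protocol weighted toward inactivated-state block was used to test compounds on stably expressing cells, with pulses from −65 mV holding to −10 mV test and −100 mV. Currents came from whole-cell automated patch-clamp recordings, either IonWorks Quattro or other automated instruments, usually in perforated-patch mode.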

[1] abbreviates: marker c = Automated patch clamp data.
The mark [2] stands for this setting: marker c: Automated patch clamp data.

Like-named read-outs stand apart in the source and are kept apart here.

T1 sequence (Q15858 whole entry): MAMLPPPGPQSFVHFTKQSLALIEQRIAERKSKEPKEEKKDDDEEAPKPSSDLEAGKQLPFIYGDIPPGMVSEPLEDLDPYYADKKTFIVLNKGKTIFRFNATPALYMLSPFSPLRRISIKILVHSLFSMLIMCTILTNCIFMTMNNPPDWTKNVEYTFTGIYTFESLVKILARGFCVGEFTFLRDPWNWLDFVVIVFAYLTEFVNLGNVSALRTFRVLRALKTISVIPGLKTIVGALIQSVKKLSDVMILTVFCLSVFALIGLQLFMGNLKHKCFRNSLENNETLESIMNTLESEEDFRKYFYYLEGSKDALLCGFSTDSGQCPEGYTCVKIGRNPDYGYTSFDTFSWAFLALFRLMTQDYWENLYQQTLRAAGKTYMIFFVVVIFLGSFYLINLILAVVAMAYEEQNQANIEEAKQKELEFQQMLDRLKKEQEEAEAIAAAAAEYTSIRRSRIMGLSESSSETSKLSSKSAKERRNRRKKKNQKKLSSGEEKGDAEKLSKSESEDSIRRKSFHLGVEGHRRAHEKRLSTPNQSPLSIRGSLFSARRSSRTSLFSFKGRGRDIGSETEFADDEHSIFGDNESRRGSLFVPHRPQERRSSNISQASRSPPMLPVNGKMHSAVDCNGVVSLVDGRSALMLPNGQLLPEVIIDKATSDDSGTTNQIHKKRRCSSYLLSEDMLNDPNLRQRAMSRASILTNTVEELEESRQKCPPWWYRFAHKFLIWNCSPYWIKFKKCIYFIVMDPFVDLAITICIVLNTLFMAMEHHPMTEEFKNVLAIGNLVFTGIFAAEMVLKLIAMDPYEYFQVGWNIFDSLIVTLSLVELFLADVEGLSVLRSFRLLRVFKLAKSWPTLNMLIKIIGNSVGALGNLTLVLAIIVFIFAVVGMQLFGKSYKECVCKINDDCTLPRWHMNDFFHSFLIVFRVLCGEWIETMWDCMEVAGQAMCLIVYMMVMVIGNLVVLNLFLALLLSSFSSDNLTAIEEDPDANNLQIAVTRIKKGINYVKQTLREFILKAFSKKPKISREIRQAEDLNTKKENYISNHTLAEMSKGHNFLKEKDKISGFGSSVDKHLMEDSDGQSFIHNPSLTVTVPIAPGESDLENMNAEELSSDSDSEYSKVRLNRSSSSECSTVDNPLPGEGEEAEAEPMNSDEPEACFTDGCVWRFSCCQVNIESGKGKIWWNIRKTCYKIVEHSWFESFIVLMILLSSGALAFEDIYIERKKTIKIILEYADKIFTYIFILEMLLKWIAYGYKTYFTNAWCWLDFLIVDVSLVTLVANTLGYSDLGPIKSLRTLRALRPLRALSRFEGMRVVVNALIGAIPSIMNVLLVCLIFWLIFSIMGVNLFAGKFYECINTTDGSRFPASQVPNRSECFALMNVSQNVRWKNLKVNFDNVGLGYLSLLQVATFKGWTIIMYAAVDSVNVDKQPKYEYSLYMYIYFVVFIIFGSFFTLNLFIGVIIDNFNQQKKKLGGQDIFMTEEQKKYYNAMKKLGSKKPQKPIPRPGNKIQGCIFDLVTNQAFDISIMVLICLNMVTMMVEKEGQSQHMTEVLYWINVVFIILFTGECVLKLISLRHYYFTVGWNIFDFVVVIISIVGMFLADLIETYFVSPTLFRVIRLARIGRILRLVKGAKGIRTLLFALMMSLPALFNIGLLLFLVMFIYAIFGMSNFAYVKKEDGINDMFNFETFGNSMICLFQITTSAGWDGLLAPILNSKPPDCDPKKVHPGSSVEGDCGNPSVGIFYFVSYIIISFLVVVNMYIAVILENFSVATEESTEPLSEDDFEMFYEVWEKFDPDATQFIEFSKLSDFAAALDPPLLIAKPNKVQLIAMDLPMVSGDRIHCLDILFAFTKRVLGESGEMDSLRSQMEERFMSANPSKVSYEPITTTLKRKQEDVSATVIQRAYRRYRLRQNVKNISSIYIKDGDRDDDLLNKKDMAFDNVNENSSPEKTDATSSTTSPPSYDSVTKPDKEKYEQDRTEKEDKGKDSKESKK

In the case of `CN(c1ccccc1)c1nc(N)nc(-c2noc(-c3ccc(OCCOCC(F)(F)F)nc3)n2)n1` [Example 366, 2-N-Methyl-2-N-phenyl-6-(5-{6-[2-(2,2,2-trifluoroethoxy)ethoxy]pyridin-3-yl}-1,2,4-oxadiazol-3-yl)-1,3,5-triazine-2,4-diamine], under setting [1], the IC50 worked out at 52.5 nM.

Regarding `COc1ccc(-c2nc(-c3nc(N)nc(N(C)c4ccccc4)n3)no2)c(OC)c1` [Example 77, 6-[5-(2,4-Dimethoxy-phenyl)-[1,2,4]oxadiazol-3-yl]-N-methyl-N-phenyl-[1,3,5]triazine-2,4-diamine], the IC50 under setting [2] stood at 246 nM.

Regarding `Cc1cc(-c2nc(-c3nc(N)nc(N(C)c4ccccc4)n3)no2)no1` [Example 44, N-Methyl-6-[5-(5-methyl-isoxazol-3-yl)-[1,2,4]oxadiazol-3-yl]-N-phenyl-[1,3,5]triazine-2,4-diamine], the IC50 under setting [2] stood at 2720 nM.

As for `CN(c1ccccc1)c1nc(N)nc(-c2noc(-c3cccnc3C(=O)NC3CC3)n2)n1` [Example 373, 3-(3-{4-amino-6-[methyl(phenyl)amino]-1,3,5-triazin-2-yl}-1,2,4-oxadiazol-5-yl)-N-cyclopropylpyridine-2-carboxamide], under setting [1], the IC50 worked out at 4880 nM.

Regarding `CN(c1ccccc1)c1nc(N)nc(-c2noc(-c3ccc(C(=O)NC4CCC4)nc3)n2)n1` [Example 286, 5-(3-{4-amino-6-[methyl(phenyl)amino]-1,3,5-triazin-2-yl}-1,2,4-oxadiazol-5-yl)-N-cyclobutylpyridine-2-carboxamide], the IC50 under setting [1] was determined as 1070 nM.

As for `Nc1nc(-c2noc(-c3ccc(OCC(F)(F)F)nc3)n2)nc(N(CC(F)(F)F)c2ccccc2)n1` [Example 150, 2-N-phenyl-6-{5-[6-(2,2,2-trifluoroethoxy)pyridin-3-yl]-1,2,4-oxadiazol-3-yl}-2-N-(2,2,2-trifluoroethyl)-1,3,5-triazine-2,4-diamine], the IC50 under setting [2] stood at 222 nM.

As to `CN(c1ccccc1)c1nc(N)nc(-c2noc(-c3ccc(OC4CCOC4)nc3)n2)n1` (stereo not drawn) [Example 141, 2-N-methyl-6-{5-[6-(oxolan-3-yloxy)pyridin-3-yl]-1,2,4-oxadiazol-3-yl}-2-N-phenyl-1,3,5-triazine-2,4-diamine], the IC50 under setting [2] was found to be 261 nM.

For `CN(c1ccccc1)c1nc(N)nc(-c2noc(C3CCN(S(=O)(=O)CC(F)(F)F)CC3)n2)n1` [Example 169, 2-N-methyl-2-N-phenyl-6-(5-{1-[(2,2,2-trifluoroethane)sulfonyl]piperidin-4-yl}-1,2,4-oxadiazol-3-yl)-1,3,5-triazine-2,4-diamine], the IC50 under setting [2] was 1030 nM.

Consider `Nc1nc(Nc2ccccc2)nc(-c2noc(N3CC4C(COc5ccccc5)C4C3)n2)n1` (stereo not drawn) [Example 392, 6-{5-[6-(phenoxymethyl)-3-azabicyclo[3.1.0]hexan-3-yl]-1,2,4-oxadiazol-3-yl}-2-N-phenyl-1,3,5-triazine-2,4-diamine], for which the IC50 under setting [1] is 433 nM.

On to `CN(c1ccccc1)c1nc(N)nc(-c2noc(C(=O)N3CCC(COCC(F)(F)F)CC3)n2)n1` [Example 460, 2-N-methyl-2-N-phenyl-6-[5-({4-[(2,2,2-trifluoroethoxy)methyl]piperidin-1-yl]carbonyl)-1,2,4-oxadiazol-3-yl]-1,3,5-triazine-2,4-diamine], for which, under setting [1], the IC50 is 3030 nM.

In the case of `CN(c1cccc(Cl)c1)c1nc(N)nc(-c2noc(-c3cccs3)n2)n1` [Example 101, N-(3-Chlorophenyl)-N-methyl-6-(5-thiophen-2-yl-[1,2,4]oxadiazol-3-yl)-[1,3,5]triazine-2,4-diamine], the IC50 under setting [2] is 206 nM.

As to `CN(c1ccccc1)c1nc(N)nc(-c2noc(N3C[C@@H]4[C@@H](COCC(F)(F)F)[C@@H]4C3)n2)n1` [Example 387, 2-N-methyl-2-N-phenyl-6-{5-[6-[(2,2,2-trifluoroethoxy)methyl]-3-azabicyclo[3.1.0]hexan-3-yl]-1,2,4-oxadiazol-3-yl}-1,3,5-triazine-2,4-diamine], the IC50 under setting [1] worked out at 1420 nM.

The values above are taken from patent US8895733B2 (Novartis AG, priority 2010, dated 2014).
